Experimental data as given in patent publication US6479530B2, “Imidazole derivatives having affinity for α2 receptors” (Orion Corporation, priority 1995, dated 2002).

How the values were obtained:
[1] = molecular target: α1-adrenoceptors; experiment: Binding assay, displacement of 0.1 nM 3H-prazosin in rat neocortical membranes; conditions: 30 min at 25° C., at least three independent experiments
Procedure: (§1) Affinities for α2-adrenoceptors and α1-adrenoceptors were estimated by determining the displacement of 1 nM ^3H-RX821002 (α2) or 0.1 nM ^3H-prazosin (α1) from α-adrenoceptors in rat neocortical membranes. For this purpose membranes were incubated with different concentrations of test compounds spanning a concentration range of five orders of magnitude. Nonspecific binding was defined with 10 μM phentolamine. Membranes were used at a protein concentration of 2 mg/ml in a total volume of 250 μl. The incubation buffer consisted of 50 mM TRIS-HCl, pH 7.7. After a 30 min incubation at 25° C. samples were filtered through glass fibre filter and filters were washed three times with 4 ml icecold wash buffer consisting of 10 mM TRIS-HCl, pH 7.7. Filters were then dried, impregnated with a scintillation cocktail and counted in a scintillation counter. Experimental data was analyzed using the commercial nonlinear least squares computer program LIGAND.
(§2) Each compound was tested in at least three independent experiments for its affinity on rat neocortical α2- or α1-adrenoceptors.

[2] = molecular target: T1, α2-adrenoceptors; experiment: Binding assay, displacement of 1 nM 3H-RX821002 in rat neocortical membranes; conditions: rat neocortical membranes, 1 nM 3H-RX821002, 30 min at 25° C., at least three independent experiments
T1 construct: pKi α2; other: rat neocortical membranes, 1 nM 3H-RX821002, 30 min at 25° C., at least three independent experiments
Procedure: as §1, §2

[3] = tested on: α2-adrenoceptors; experiment: as above; conditions: ratio of affinities on rat neocortical α2- vs α1-adrenoceptors
Procedure: as §1, §2

Structure (SMILES)	pKi α1 [1]	pKi α2 [2]	alpha2 vs alpha1 selectivity [3]
Cc1cccc2c1CCC2c1c[nH]cn1.Cl (stereo not drawn) [Compound 1, 4-(4-Methylindan-1-yl)-1H-imidazole hydrochloride]	7.31	8.44	14
Cl.Oc1ccc2c(c1)C(Cc1c[nH]cn1)CC2 (stereo not drawn) [Compound 2, 3-(1H-Imidazol-4-ylmethyl)-indan-5-ol hydrochloride]	6.61	8.70	126
CC(c1c[nH]cn1)C1CCc2ccccc21.Cl (stereo not drawn) [Compound 3, 4-[1-(Indan-1-yl)-ethyl]-1H-imidazole hydrochloride]	6.21	8.35	142
Cl.Oc1ccc2c(c1)C(Cc1c[nH]cn1)CCC2 (stereo not drawn) [Compound 4, 8-(1H-Imidazol-4-ylmethyl)-5,6,7,8-tetrahydronaphthalen-2-ol hydrochloride]	6.85	7.39	3
Cc1cccc([C@H](C)c2cnc[nH]2)c1C [Compound 5, dexmedetomidine, reference compound]	6.48	8.42	90
